According to patent publication US12227496B2 (BRISTOL-MYERS SQUIBB COMPANY, priority 2019, dated 2025):

molecular target: T1, human FXR (Homo sapiens, UniProt Q96RI1); assay: transient human FXR/Gal4-luciferase reporter assay; format: cell-based; details: Gal4-hFXR LBD fusion, luciferase reporter in HEK293 cells; response relative to 8 μM GW-4064
T1 construct: expressed in transfected cells; host or cells: HEK293 cells stably carrying a 5xGal4-response-element firefly luciferase reporter, transiently transfected with pcDNA3.1-Gal4-FXR
T1 sequence (Q96RI1 262-486 limits assumed): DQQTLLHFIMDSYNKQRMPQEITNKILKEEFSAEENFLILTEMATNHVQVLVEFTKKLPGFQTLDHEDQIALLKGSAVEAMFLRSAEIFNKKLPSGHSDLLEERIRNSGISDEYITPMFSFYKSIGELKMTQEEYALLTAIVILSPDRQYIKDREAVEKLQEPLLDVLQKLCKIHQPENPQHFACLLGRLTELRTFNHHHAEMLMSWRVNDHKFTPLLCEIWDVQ
Procedure, shortened: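 HEK293 cells stably carrying a 5×Gal4-response-element firefly luciferase reporter were transiently transfected with Gal4-hFXR. They were then incubated overnight at 37 °C with compound serial dilutions in medium containing 10% charcoal/dextran-stripped FBS. Luminescence was read after Steady-Glo addition.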

Row | EC50 | SMILES
1 | 1930 nM | Cn1nc(C2CC2)cc1C12CCC(CN(C(=O)C3CCS(=O)(=O)CC3)c3cccc(-c4cc(C5CC5)on4)c3)(CC1)CC2 [Example 131, N-((4-(3-cyclopropyl-1-methyl-1H-pyrazol-5-yl)bicyclo[2.2.2]octan-1-yl)methyl)-N-(3-(5-cyclopropylisoxazol-3-yl)phenyl)tetrahydro-2H-thiopyran-4-carboxamide 1,1-dioxide]
2 | 227 nM | Cn1nc(C2CC2)cc1C12CCC(CN(C(=O)C3CCOCC3)c3cccc(-c4cc(C5CC5)on4)c3)(CC1)CC2 [Example 132, N-((4-(3-cyclopropyl-1-methyl-1H-pyrazol-5-yl)bicyclo[2.2.2]octan-1-yl)methyl)-N-(3-(5-cyclopropylisoxazol-3-yl)phenyl)tetrahydro-2H-pyran-4-carboxamide]
3 | 2000 nM | CN1CCC(C(=O)N(CC23CCC(c4cc(C5CC5)nn4C)(CC2)CC3)c2cccc(-c3cc(C4CC4)on3)c2)CC1 [Example 133, N-((4-(3-cyclopropyl-1-methyl-1H-pyrazol-5-yl)bicyclo[2.2.2]octan-1-yl)methyl)-N-(3-(5-cyclopropylisoxazol-3-yl)phenyl)-1-methylpiperidine-4-carboxamide]
4 | 511 nM | Cn1nc(C2CC2)cc1C12CCC(CN(C(=O)C3CCOCC3)c3cccc(-c4ccc(S(C)(=O)=O)cc4)c3)(CC1)CC2 [Example 134, N-((4-(3-cyclopropyl-1-methyl-1H-pyrazol-5-yl)bicyclo[2.2.2]octan-1-yl)methyl)-N-(4′-(methylsulfonyl)-[1,1′-biphenyl]-3-yl)tetrahydro-2H-pyran-4-carboxamide]
5 | 449 nM | Cc1nc2ccc(-c3cccc(N(CC45CCC(c6cc(C7CC7)nn6C)(CC4)CC5)C(=O)C4CCC(F)(F)CC4)c3)cc2s1 [Example 137, N-((4-(3-cyclopropyl-1-methyl-1H-pyrazol-5-yl)bicyclo[2.2.2]octan-1-yl)methyl)-4,4-difluoro-N-(3-(2-methylbenzo[d]thiazol-6-yl)phenyl)cyclohexane-1-carboxamide]
6 | 1580 nM | Cn1nc(C2CC2)cc1C12CCC(CN(C(=O)C3CCS(=O)(=O)CC3)c3cccc(-c4cc(C5CC5)no4)c3)(CC1)CC2 [Example 138, N-((4-(3-cyclopropyl-1-methyl-1H-pyrazol-5-yl)bicyclo[2.2.2]octan-1-yl)methyl)-N-(3-(3-cyclopropylisoxazol-5-yl)phenyl)tetrahydro-2H-thiopyran-4-carboxamide 1,1-dioxide]
7 | 87 nM | Cn1nc(C2CC2)cc1C12CCC(CN(C(=O)C3CCOCC3)c3cccc(-c4cc(C5CC5)no4)c3)(CC1)CC2 [Example 139, N-((4-(3-cyclopropyl-1-methyl-1H-pyrazol-5-yl)bicyclo[2.2.2]octan-1-yl)methyl)-N-(3-(3-cyclopropylisoxazol-5-yl)phenyl)tetrahydro-2H-pyran-4-carboxamide]
8 | 2640 nM | CN1CCC(C(=O)N(CC23CCC(c4cc(C5CC5)nn4C)(CC2)CC3)c2cccc(-c3cc(C4CC4)no3)c2)CC1 [Example 140, N-((4-(3-cyclopropyl-1-methyl-1H-pyrazol-5-yl)bicyclo[2.2.2]octan-1-yl)methyl)-N-(3-(3-cyclopropylisoxazol-5-yl)phenyl)-1-methylpiperidine-4-carboxamide]

Continued, molecule first:

Row | SMILES | EC50
9 | O=C(C1CCC(F)(F)CC1)N(CC12CCC(c3noc(C(F)(F)F)n3)(CC1)CC2)c1cccc(-c2cnc(C3CC3)nc2)c1 [Example 119, N-(3-(2-cyclopropylpyrimidin-5-yl)phenyl)-4,4-difluoro-N-((4-(5-(trifluoromethyl)-1,2,4-oxadiazol-3-yl)bicyclo[2.2.2]octan-1-yl)methyl)cyclohexane-1-carboxamide] | 290 nM
10 | O=C(C1CCC(F)(F)CC1)N(CC12CCC(c3noc(C4CC(O)(C(F)(F)F)C4)n3)(CC1)CC2)c1cccc(-c2cnc(C3CC3)nc2)c1 (centres unmarked) [Example 120, N-(3-(2-cyclopropylpyrimidin-5-yl)phenyl)-4,4-difluoro-N-((4-(5-(3-hydroxy-3-(trifluoromethyl)cyclobutyl)-1,2,4-oxadiazol-3-yl)bicyclo[2.2.2]octan-1-yl)methyl)cyclohexane-1-carboxamide] | 2000 nM
11 | CC(F)(F)c1nc(C23CCC(CN(C(=O)C4CCOCC4)c4ccc(F)c(-c5ccc(P(C)(C)=O)cc5)c4)(CC2)CC3)no1 [Example 122, N-((4-(5-(1,1-difluoroethyl)-1,2,4-oxadiazol-3-yl)bicyclo[2.2.2]octan-1-yl)methyl)-N-(4′-(dimethylphosphoryl)-6-fluoro-[1,1′-biphenyl]-3-yl)tetrahydro-2H-pyran-4-carboxamide] | 1320 nM
12 | CC(C)(C)c1nnc(C23CCC(CN(C(=O)C4CCC(F)(F)CC4)c4cccc(-c5nc(C6CC6)no5)c4)(CC2)CC3)o1 [Example 123, N-((4-(5-(tert-Butyl)-1,3,4-oxadiazol-2-yl)bicyclo[2.2.2]octan-1-yl)methyl)-N-(3-(3-cyclopropyl-1,2,4-oxadiazol-5-yl)phenyl)-4,4-difluorocyclohexane-1-carboxamide] | 280 nM
13 | CC(C)(C)c1nnc(C23CCC(CN(C(=O)C4CCC(F)(F)CC4)c4cccc(-c5cc(C6CC6)on5)c4)(CC2)CC3)o1 [Example 124, N-((4-(5-(tert-Butyl)-1,3,4-oxadiazol-2-yl)bicyclo[2.2.2]octan-1-yl)methyl)-N-(3-(5-cyclopropylisoxazol-3-yl)phenyl)-4,4-difluorocyclohexane-1-carboxamide] | 467 nM
14 | CCOc1ncc(-c2cccc(N(CC34CCC(c5nc(C(C)(C)C)no5)(CC3)CC4)C(=O)c3cc(Cl)cc(Cl)c3)c2)cn1 [Example 125, N-((4-(3-(tert-Butyl)-1,2,4-oxadiazol-5-yl)bicyclo[2.2.2]octan-1-yl)methyl)-3,5-dichloro-N-(3-(2-ethoxypyrimidin-5-yl)phenyl)benzamide] | 726 nM
15 | CC(C)(C)c1noc(C23CCC(CN(C(=O)C4CCC(F)(F)CC4)c4cccc(-c5cn[nH]c(=O)c5)c4)(CC2)CC3)n1 [Example 127, N-((4-(3-(tert-Butyl)-1,2,4-oxadiazol-5-yl)bicyclo[2.2.2]octan-1-yl)methyl)-4,4-difluoro-N-(3-(6-oxo-1,6-dihydropyridazin-4-yl)phenyl)cyclohexane-1-carboxamide] | 4000 nM
16 | CC(C)(F)c1nc(C23CCC(CN(C(=O)C4CCOCC4)c4cccc(-c5cn[nH]c(=O)c5)c4)(CC2)CC3)no1 [Example 128, N-((4-(5-(2-fluoropropan-2-yl)-1,2,4-oxadiazol-3-yl)bicyclo[2.2.2]octan-1-yl)methyl)-N-(3-(6-oxo-1,6-dihydropyridazin-4-yl)phenyl)tetrahydro-2H-pyran-4-carboxamide] | 4000 nM
17 | CC(F)(F)c1nc(C23CCC(CN(C(=O)C4CCOCC4)c4cccc(-c5cn[nH]c(=O)c5)c4)(CC2)CC3)no1 [Example 129, N-((4-(5-(1,1-difluoroethyl)-1,2,4-oxadiazol-3-yl)bicyclo[2.2.2]octan-1-yl)methyl)-N-(3-(6-oxo-1,6-dihydropyridazin-4-yl)phenyl)tetrahydro-2H-pyran-4-carboxamide] | 1480 nM
18 | CC(F)(F)c1nc(C23CCC(CN(C(=O)C4CCC(F)(F)CC4)c4cccc(-c5ccc(S(C)(=O)=O)cc5)c4)(CC2)CC3)no1 [Example 130, N-((4-(5-(1,1-difluoroethyl)-1,2,4-oxadiazol-3-yl)bicyclo[2.2.2]octan-1-yl)methyl)-4,4-difluoro-N-(4′-(methylsulfonyl)-[1,1′-biphenyl]-3-yl)cyclohexane-1-carboxamide] | 205 nM
19 | Cn1nc(C2CC2)cc1C12CCC(CN(C(=O)C3CCS(=O)(=O)CC3)c3cccc(-c4ccc(S(C)(=O)=O)cc4)c3)(CC1)CC2 [Example 135, N-((4-(3-cyclopropyl-1-methyl-1H-pyrazol-5-yl)bicyclo[2.2.2]octan-1-yl)methyl)-N-(4′-(methylsulfonyl)-[1,1′-biphenyl]-3-yl)tetrahydro-2H-thiopyran-4-carboxamide 1,1-dioxide] | 4000 nM
20 | CN1CCC(C(=O)N(CC23CCC(c4cc(C5CC5)nn4C)(CC2)CC3)c2cccc(-c3ccc(S(C)(=O)=O)cc3)c2)CC1 [Example 136, N-((4-(3-cyclopropyl-1-methyl-1H-pyrazol-5-yl)bicyclo[2.2.2]octan-1-yl)methyl)-1-methyl-N-(4′-(methylsulfonyl)-[1,1′-biphenyl]-3-yl)piperidine-4-carboxamide] | 4000 nM
21 | CC(C)(C)c1noc(C23CCC(CN(C(=O)C4CCC(F)(F)CC4)c4cccc(-c5cnn6cc(Cl)cnc56)c4)(CC2)CC3)n1 [Example 141, N-((4-(3-(tert-butyl)-1,2,4-oxadiazol-5-yl)bicyclo[2.2.2]octan-1-yl)methyl)-N-(3-(6-chloropyrazolo[1,5-a]pyrimidin-3-yl)phenyl)-4,4-difluorocyclohexane-1-carboxamide] | 549 nM
22 | Cc1cn(-c2cccc(N(CC34CCC(c5nc(C(C)(C)C)no5)(CC3)CC4)C(=O)C3CCC(F)(F)CC3)c2)cn1 [Example 142, N-((4-(3-(tert-butyl)-1,2,4-oxadiazol-5-yl)bicyclo[2.2.2]octan-1-yl)methyl)-4,4-difluoro-N-(3-(4-methyl-1H-imidazol-1-yl)phenyl)cyclohexane-1-carboxamide] | 721 nM
23 | CCOc1ncc(-c2cccc(N(CC34CCC(c5noc(C(C)(C)F)n5)(CC3)CC4)C(=O)c3ccc(OC)cc3)c2)cn1 [Example 143, N-(3-(2-ethoxypyrimidin-5-yl)phenyl)-N-((4-(5-(2-fluoropropan-2-yl)-1,2,4-oxadiazol-3-yl)bicyclo[2.2.2]octan-1-yl)methyl)-4-methoxybenzamide] | 202 nM
